What was measured:
[1] = tested on: HT1080 cells; format: cell-based, human
[2] = tested on: human cervix adenocarcinoma HeLa cells; format: cell-based
[3] = target: uPA (Homo sapiens, UniProt P00749); conditions: cited from earlier work
[4] = tested on: HeLa cells; format: cell-based, human

## CNC(=O)[C@@H](NC(=O)[C@H](CC(C)C)[C@H](O)C(=O)NO)C(C)(C)C [BB-2516, Marimastat]
[1]
  protection of HT1080 cells against WT-PA plus FP59: did not protect
  protection of HT1080 cells against challenge with PA-L1 and PA-L2 plus FP59: conferred clear protection

## CNC(=O)[C@H](Cc1c[nH]c2ccccc12)NC(=O)[C@@H](CC(=O)NO)CC(C)C [GM6001]
[1]
  protection of HT1080 cells against WT-PA plus FP59: did not protect
  protection of HT1080 cells against challenge with PA-L1 and PA-L2 plus FP59: conferred clear protection

## Aprotinin
[2]
  effect on killing of HeLa cells by PrAg-U2 plus FP59: protected
  effect on killing of HeLa cells by native PrAg plus FP59: had no effect

## PCPGRVVGG
[3]
  uPA:tPA selectivity: 3.0

## PGSGKSA
[3]
  uPA:tPA selectivity: 121

## PGSGRSA
[3]
  uPA:tPA selectivity: 20

## PQRGRSA
[3]
  uPA:tPA selectivity: 0.005

## SGRSA
[3]
  cleavage by uPA, times more efficiently than the physiological cleavage site present in plasminogen: 1363 fold
  uPA:tPA selectivity: 20

## tranexamic acid [tranexainic acid]
[4]
  effect on activation of pro-uPA by HeLa cells: strongly inhibited
  effect on binding/processing (activation) of PrAg-U2 on the HeLa cell surface: strongly inhibited
  effect on processing/activation of native PrAg by cells: not

Source: US20050123476A1 (priority 2001, published 2005)
